# According to patent publication US8906829B2, “Synergistic algicidal compositions including hydrazone derivatives and copper” (Dow AgroSciences LLC, priority 2010, dated 2014):
# How the values were obtained:
# C. reinhardtii = assay: Effect of copper on activity of metal-hydrazone complexes: growth inhibition of C. reinhardtii in TAP Cu minus / TAP Cu plus medium (Example 13); type: cell-based, Chlamydomonas reinhardtii; conditions: for % Inhn. Minus Copper Observed / % Inhn. Plus Copper Observed: C. reinhardtii growth inhibition; for % Inhn. Minus Copper Observed: TAP Cu minus medium; for % Inhn. Plus Copper Observed / % Inhn. Plus Copper Predicted: TAP Cu plus medium; for % Inhn. Plus Copper Predicted: calculated by Colby formula from minus-copper result and inhibition by copper chloride alone
# Experimental: In vitro toxicity assays against C. reinhardtii CC-1928 (wild type mt+137c green in dark subclone) obtained from the Chlamydomonas Resource Center at Duke University were conducted using TAP liquid growth medium described by Gorman and Levine Proc. Natl. Acad. Sci. USA 1965, 54, 1665-1669 except that CuSO4.5H2O, normally included as a component of Hutner's trace element stock solution (Hutner et al. Proc. Am. Philos. Soc. 1950, 94, 152-170), was omitted. The TAP medium lacking Cu (TAP Cu minus) was prepared by adding 400 mg NH4Cl, 10 mL of 100× Tris-Acetate (242 g Tris-base and 100 mL glacial acetic acid in 1000 mL milli Q water), and 8.3 mL of 120.5× phosphate buffer (14.34 g K2HPO4 and 7.26 g KH2PO4 in 1000 mL milli Q water) to milli Q water to make a total volume of 1 liter. The medium was treated with 0.5 g Chelex 100 resin (Bio-Rad Analytical grade, 50-100 mesh, sodium form, cat#142-2822) by stirring at room temperature for 1 hour. 900 mL were decanted and 45.9 mg of CaCl2.2H2O, 90 mg of MgSO4.7H2O and 0.9 mL Hutner's trace elements lacking CuSO4.5H2O were added and the solution was filter-sterilized. Medium containing copper (TAP Cu plus) was prepared by adding CuCl2.2H2O to the TAP Cu minus medium at 20 μM. Test compounds were dissolved in dimethylsulfoxide (DMSO) at 2 mg/mL then dilutions in TAP Cu minus and TAP Cu plus media were prepared in sterilized microcentrifuge tubes at 2 μg/mL. 100 μL aliquots of diluted compound were dispensed into flat-bottomed 96-well microtiter plates. C. reinhardtii was maintained under 12 h of light on TAP agar plates at 18° C. A loopful of cells was added to 50 mL of TAP Cu minus medium and the culture incubated with shaking at 200 rpm at 27° C. for 24 h. The culture (10 to 20 mL aliquot) was centrifuged in a bench centrifuge at 2000 rpm for 2 min. The resulting cell pellet was resuspended in 5 mL sterile milli Q water (which had been treated with Chelex 100 resin using 0.5 g resin per liter of water by stirring at room temperature for 1 h), and recentrifuged. The cells were resuspended in TAP Cu minus medium, and the suspension adjusted to 2×10^5 spores per mL. Microtiter plates containing compounds as described above were inoculated with 100 μL of this cell suspension and the plates incubated at 27° C. for 48 h before assessing algal growth by measuring light scattering in a NepheloStar plate-reader. Growth inhibition was determined by comparing growth in the presence of test compound with growth in control wells lacking test compound. The effect of copper on activity of metal-hydrazone complexes towards C. reinhardtii was evaluated by comparing their activity in TAP Cu minus and TAP Cu plus media as described in Example 10 (compound concentrations were selected which gave low inhibition in TAP Cu minus medium). Growth inhibition was determined by comparing growth in the presence of test compound with growth in control wells lacking test compound. Results for growth inhibition by test compounds in TAP Cu plus medium (% Inhn Plus Copper Observed) were compared with predicted values (% Inhn Plus Copper Predicted) that were calculated using the formula set forth by S. R. Colby in Weeds 1967, 15, 20-22 based on results obtained for the same compounds in TAP Cu minus medium (% Inhn Minus Copper Observed) and the inhibition attributed to copper chloride alone, as determined by comparing growth in TAP Cu minus and TAP Cu plus media without any test compound across experiments.
# [1] = C. reinhardtii, test concn. 0.25 μg/mL
# [2] = C. reinhardtii, test concn. 0.5 μg/mL
smiles,measurement,setting,value
C/C(=N\NC(=O)c1ccc(Cl)cc1)c1cc(Cl)cc(Cl)c1O [Compound 12],melting point,,260 to 262 °C
O=C(N/N=C/c1ccc(Cl)c(Cl)c1O)c1ccccc1 [Compound 21],melting point,,249 to 252 °C
"C/C(=N\NC(=O)c1cccc(C)c1)c1cc(Cl)cc(Cl)c1O [Compound 25, 3-methyl-benzoic acid [1-(3,5-dichloro-2-hydroxyphenyl)-ethylidene]-hydrazide]",melting point,,221 to 223 °C
C/C(=N\NC(=O)c1ccc(C)cc1)c1cc(Cl)cc(Cl)c1O [Compound 26],melting point,,262 to 264 °C
O=C(N/N=C/c1cc(Cl)cc(C(F)(F)F)c1O)c1ccccc1 [Compound 27],melting point,,225 to 226 °C
O=C(N/N=C/c1cc(C(F)(F)F)cc(C(F)(F)F)c1O)c1ccc(Cl)cc1 [Compound 32],melting point,,233 to 236 °C
O=C(N/N=C/c1c(Cl)ccc(Cl)c1O)c1ccc(Cl)cc1 [Compound 45],melting point,,271 to 273 °C
O=C(N/N=C/c1cccc(Cl)c1O)c1ccc(Cl)cc1 [Compound 52],melting point,,257 to 260 °C
O=C(N/N=C/c1c(C(F)(F)F)ccc(Cl)c1O)c1ccc(Cl)cc1 [Compound 56],melting point,,236 to 238 °C
CC(=O)[O-].CC(=O)[O-].O=C(N/N=C/c1cc(Cl)cc(Cl)c1O)c1ccccc1.[Cu+2] [Compound 72],% Inhn. Minus Copper Observed,C. reinhardtii; test concn. 0.25 μg/mL,79%
same,% Inhn. Plus Copper Observed,C. reinhardtii; test concn. 0.25 μg/mL,83%
same,% Inhn. Plus Copper Predicted,C. reinhardtii; [1],66%
CC(=O)[O-].CC(=O)[O-].O=C(N/N=C/c1cc(Cl)cc(Cl)c1O)c1ccccc1.O=C(N/N=C/c1cc(Cl)cc(Cl)c1O)c1ccccc1.[Cu+2] [Compound 73],% Inhn. Minus Copper Observed,C. reinhardtii; test concn. 0.25 μg/mL,23%
same,% Inhn. Plus Copper Observed,C. reinhardtii; test concn. 0.25 μg/mL,87%
same,% Inhn. Plus Copper Predicted,C. reinhardtii; [1],10%
O=C(N/N=C/c1cc(Cl)cc(Cl)c1O)c1ccccc1.O=C(N/N=C/c1cc(Cl)cc(Cl)c1O)c1ccccc1.O=S(=O)([O-])[O-].[Cu+2] [Compound 74],% Inhn. Minus Copper Observed,C. reinhardtii; test concn. 0.25 μg/mL,−9%
same,% Inhn. Plus Copper Observed,C. reinhardtii; test concn. 0.25 μg/mL,82%
same,% Inhn. Plus Copper Predicted,C. reinhardtii; [1],−22%
O=C(N/N=C/c1cc(Cl)cc(Cl)c1O)c1ccccc1.[Cl-].[Cl-].[Cu+2] [Compound 75],% Inhn. Minus Copper Observed,C. reinhardtii; test concn. 0.25 μg/mL,18%
same,% Inhn. Plus Copper Observed,C. reinhardtii; test concn. 0.25 μg/mL,59%
same,% Inhn. Plus Copper Predicted,C. reinhardtii; [1],5%
O=C(N/N=C/c1cc(Cl)cc(Cl)c1O)c1ccccc1.O=C(N/N=C/c1cc(Cl)cc(Cl)c1O)c1ccccc1.[Cl-].[Cl-].[Cu+2] [Compound 76],% Inhn. Minus Copper Observed,C. reinhardtii; test concn. 0.5 μg/mL,3%
same,% Inhn. Plus Copper Observed,C. reinhardtii; test concn. 0.5 μg/mL,89%
same,% Inhn. Plus Copper Predicted,C. reinhardtii; [2],−10%
O=C(N/N=C/c1cc(Cl)cc(Cl)c1O)c1ccccc1.O=C(N/N=C/c1cc(Cl)cc(Cl)c1O)c1ccccc1.[Cl-].[Cl-].[Mn+2] [Compound 77],% Inhn. Minus Copper Observed,C. reinhardtii; test concn. 0.5 μg/mL,−5%
same,% Inhn. Plus Copper Observed,C. reinhardtii; test concn. 0.5 μg/mL,93%
same,% Inhn. Plus Copper Predicted,C. reinhardtii; [2],−18%
O=C(NN=Cc1cc(Cl)cc(Cl)c1O)c1ccccc1.O=C(NN=Cc1cc(Cl)cc(Cl)c1O)c1ccccc1.[Cl-].[Cl-].[Zn+2] [Compound 78],% Inhn. Minus Copper Observed,C. reinhardtii; test concn. 0.5 μg/mL,−9%
same,% Inhn. Plus Copper Observed,C. reinhardtii; test concn. 0.5 μg/mL,87%
same,% Inhn. Plus Copper Predicted,C. reinhardtii; [2],−22%
"[Cl][Cu][Cl] [CuCl2, Copper chloride, reference compound]",% Inhn. attributed to copper chloride alone,"C. reinhardtii; C. reinhardtii, CuCl2 10 μM, growth in TAP Cu plus vs TAP Cu minus medium without test compound, across experiments",−12.9%
